Reference: patent publication US10813981B2, “Saposin B binds the lipofuscin bisretinoid A2E and prevents its enzymatic and photo degradation” (Syracuse University, priority 2017, dated 2020)
Changes are numbered by the printed parent chain.

Key:
SapB [1] = biological target: T1, SapB (Homo sapiens, UniProt P07602); test: Fluorescence quenching titration of SapB with ligand (double logarithmic Stern-Volmer analysis); assay type: binding; details: 40 μM SapB, 50 mM phosphate buffer pH 5.5, average of three runs; for Kd: read-out: LogKA of binding by SapB (converted)
T1 construct: made in house; host or cells: E. coli
T1 sequence (P07602 195-273 limits assumed): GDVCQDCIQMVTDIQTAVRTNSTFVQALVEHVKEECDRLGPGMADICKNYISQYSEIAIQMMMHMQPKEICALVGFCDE
Description: A2E and SapB were prepared and purified according to literature reports. To determine the A2E/protein binding stoichiometry, a fluorescence titration was carried out by incrementally adding small amounts of A2E to a solution of SapB (FIG. 2). […] A double logarithmic plot of
Fluorescence quenching measurements were performed on a Varian Cary Eclipse fluorimeter equipped with a QNW Peltier temperature controller. The experiments were conducted at 25.00±0.01° C. in 50 mM phosphate buffer, pH 5.50 or 7.40 using 278 nm excitation wavelength for sapB emission spectra at 325 nm (FIG. 2) or 444 nm excitation for A2E emission at 602 nm (FIG. 3) with excitation and emission monochromators bandwidth of 5 nm each. The fluorescence quenching data were analyzed using OriginLab software version 8.
The interaction of SapB (prepared as described above) with a variety of ligands was followed by monitoring the quenching of the fluorescence intensities of the protein's tyrosine residues upon binding (FIG. 12 Panels a-f).
For each ligand tested 40 μM SapB in 50 mM phosphate buffer at pH 5.5 was titrated with ligand and quenching was monitored at the fluorescence maxima at 330 nm. […] All of the fluorescence data were analyzed by a double logarithmic Stern-Volmer plot, shown for all ligands, using the emission maxima to determine binding affinity, presented in Table 3, and using the following equation
Materials and Methods—Saposin B (SapB) was prepared and purified as described above. Briefly, SapB solutions in this study were prepared in 50 mM phosphate buffer, pH 5.5. […] Ligand solutions were prepared in 100% dimethylformamide (DMF) to a concentration of 2 mM, with the exception of hydoxychloroquine (HCQ), which was prepared in 50 mM phosphate buffer, pH 5.5. […] 4.2. Fluorescence Spectroscopy. Fluorescence quenching measurements were performed on a Varian Cary Eclipse fluorimeter equipped with a QNW Peltier temperature controller. The binding experiments were conducted at 25.00±0.01° C. in 50 mM phosphate buffer, pH 5.5, using 278 nm excitation wavelength for SapB emission spectra at 330 nm (FIG. 1a-f) with excitation and emission monochromators bandwidth of 5 nm each. Temperature sensitive binding experiments were performed between 20.00±0.01 and 40.00±0.01° C. using 278 nm excitation wavelength for SapB emission spectra at 331 nm, with excitation and emission monochromators bandwidth of 5 nm each. The fluorescence quenching data were analyzed using OriginLab software version 8.

SapB mutant E69A = biological target: T2, SapB mutant E69A (Homo sapiens, UniProt P07602, E263A); test: Fluorescence binding assay (Stern-Volmer and temperature dependent), E69A with ATO; details: 25° C.; read-out: KA at 25° C., E69A-ATO
T2 construct: is a product of the post-translational cleavage of prosaposin, along with SapA, SapC, and SapD
T2 sequence (P07602 195-273 E263A): T1 sequence (P07602 195-273 limits assumed) with E69A
Description: The deviation observed for [SapB-ATO]complex from the trend warranted further investigation. In order to examine this deviation, a previously described SapB mutant […] (denoted as […] from here on) was used. Fluorescence studies were performed with […] and ATO as described herein for wild type SapB. […] Isothermal titration calorimetry has shown that [SapB-ATO]complex formation has a larger enthalpic contribution than [SapB-CQ]complex and [SapB-CoQ10]complex. Thus, the shift in binding affinity between [SapB-ATO]complex and [[…]-ATO]complex binding may be due to a shift in the thermodynamics of binding. In order to test this, temperature dependent fluorescence studies were performed with […] and ATO, as well as with SapB and ATO. Fluorescence titration experiments were carried out at five different temperatures for each of the […]-ATO and SapB-ATO experiments (FIG. 14). At each temperature, protein was prepared in phosphate buffer solution and ATO was then added via titration. The quenching of SapB or […] fluorescence was monitored at 330 nm and the KA was calculated via double logarithmic Stern-Volmer analysis. […] Fluorescence Spectroscopy. Fluorescence quenching measurements were performed on a Varian Cary Eclipse fluorimeter equipped with a QNW Peltier temperature controller. […] The fluorescence quenching data were analyzed using OriginLab software version 8.

SapB [2] = biological target: T1, SapB; test: Temperature dependent fluorescence binding assay, SapB with ATO; details: 25° C.; read-out: KA at 25° C., SapB-ATO
Description: Isothermal titration calorimetry has shown that [SapB-ATO]complex formation has a larger enthalpic contribution than [SapB-CQ]complex and [SapB-CoQ10]complex. Thus, the shift in binding affinity between [SapB-ATO]complex and [[…]-ATO]complex binding may be due to a shift in the thermodynamics of binding. In order to test this, temperature dependent fluorescence studies were performed with […] and ATO, as well as with SapB and ATO. Fluorescence titration experiments were carried out at five different temperatures for each of the […]-ATO and SapB-ATO experiments (FIG. 14). At each temperature, protein was prepared in phosphate buffer solution and ATO was then added via titration. The quenching of SapB or […] fluorescence was monitored at 330 nm and the KA was calculated via double logarithmic Stern-Volmer analysis. The best-fit plot of InKeq vs. 1/T, where was used to calculate the standard enthalpy, entropy, and Gibb's Free energy of binding for the formation of [[…]-ATO]complex and Materials and Methods-Saposin B (SapB) was prepared and purified as described above. […] Fluorescence Spectroscopy. Fluorescence quenching measurements were performed on a Varian Cary Eclipse fluorimeter equipped with a QNW Peltier temperature controller. […] The fluorescence quenching data were analyzed using OriginLab software version 8.

[3] = biological target: T3, pre-formed [SapB-Ligand]complex (Homo sapiens, UniProt P07602); test: Competition / order of addition fluorescence binding with pre-formed SapB complexes; details: A2E fluorescence at 602 nm, excitation 444 nm, pH 5.5
T3 construct: is a product of the post-translational cleavage of prosaposin, along with SapA, SapC, and SapD; made in house; host or cells: E. coli
T3 sequence (P07602 195-273 limits assumed): T1 sequence (P07602 195-273 limits assumed)
Description: We have reported in an earlier study the binding properties of SapB to CoQ10 (a bone fide substrate). To determine whether it binds to the same binding site on the protein or displaces A2E from SapB, a series of fluorescence titration experiments in the presence and absence of CoQ10 were performed.
An 800 μL, 20 μM SapB to 10 μM CoQ10 complex was made in pH 5.5 50 mM phosphate buffer. The complex was formed at room temperature in a 1 mL glass vial with gentle stirring for 10 minutes. The entire solution was then transferred to a clear fluorescence cuvette. Fluorescence experiments were performed under emission conditions on a Cary Eclipse Fluorescence Spectrophotometer, with an excitation wavelength of 444 nm, emission wavelength range of 500-800 nm, excitation slit width set to 10 nm, and emission slit width set to 10 nm. […] Analysis of A2E binding the SapB-CoQ10 complex was performed by tracking fluorescence intensity at A2E's peak emission wavelength of 602 nm and plotting it against the concentration of A2E added per each injection.
A SapB-ATO complex was formed by adding 20 μL of the experimental stock to 1 mL of the SapB experimental stock for a final volume of 1020 μL in a 1.5 mL Eppendorf tube. […] The entire 1020 μL was then transferred to a clear fluorescence cuvette. […]

Row | Molecule | LogKA of binding by SapB (SapB [1]) | Kd (SapB [1]) [µM] | further results
1 | phosphatidyl-choline [Phosphatidylcholine] | 6.075 | – | –
2 | O=C1C(O)=C([C@H]2CC[C@H](c3ccc(Cl)cc3)CC2)C(=O)c2ccccc21 [Atovaquone, atovaquone] | – | 0.0288 | Kd (SapB mutant E69A): 58.5 µM; Kd (SapB [2]): 0.112 µM
3 | COC1=C(OC)C(=O)C(C/C=C(\C)CC/C=C(\C)CC/C=C(\C)CC/C=C(\C)CC/C=C(\C)CC/C=C(\C)CC/C=C(\C)CC/C=C(\C)CCC=C(C)C)=C(C)C1=O [Coenzyme Q9] | 6.196 | – | –
4 | COC1=C(OC)C(=O)C(C/C=C(\C)CC/C=C(\C)CC/C=C(\C)CC/C=C(\C)CC/C=C(\C)CC/C=C(\C)CC/C=C(\C)CC/C=C(\C)CC/C=C(\C)CCC=C(C)C)=C(C)C1=O [Coenzyme Q10, coenzyme Q10] | – | 0.0631 | A2E binding on titration into SapB pre-complexed with the ligand [3]: identical fluorescence titration pattern
5 | CCN(CC)CCCC(C)Nc1ccnc2cc(Cl)ccc12 (stereo not drawn) [Chloroquine, chloroquine] | – | 70.1 | –
6 | CC1=C(/C=C/C(C)=C/C=C/C(C)=C/C=C/C=C(C)/C=C/C=C(\C)C=O)C(C)(C)CCC1 [Apocarotenal, apo-carotenal] | 4.618 | – | –
7 | CCN(CCO)CCCC(C)Nc1ccnc2cc(Cl)ccc12 (stereo not drawn) [Hydoxychloroquine, hydroxychloroquine] | – | 155 | –
8 | COC1=C(OC)C(=O)C(C/C=C(\C)CC/C=C(\C)CC/C=C(\C)CCC=C(C)C)=C(C)C1=O [Coenzyme Q4] | 5.103 | – | –
9 | phosphatidylethanolamine | 5.227 | – | –
